According to PMC10025185, “A continuous in silico learning strategy to identify safety liabilities in compounds used in the leather and textile industry” (Archives of Toxicology, 2023):
Where two headings read alike, the source gives them in different places.

What was measured:
Assay type in all cases: cell-based
[1] = test system: androgen and oestrogen receptors; experiment: ED assays of androgen and oestrogen receptors (overall experimental ED result)
Method: The transcriptional activation of androgen receptor (AR) assays was carried out by adapting the OECD protocol 458 (OECD [2020]).
MDA-MB-453 cells (8000 cells/well) expressing an AR luciferase reporter were seeded into 384 white plates (Greiner 781098) in culture medium (DMEM (ATCC), 10% foetal bovine serum (Sigma Aldrich), 1% penicillin–streptomycin (Sigma-Aldrich), 75 µg/ml geneticin (Gibco) and incubated overnight at 37 °C 5% CO2 and 95% humidity. After this time, the cell culture medium was discarded and replaced by assay medium (DMEM (ATCC), 0.1% foetal bovine serum (Sigma-Aldrich), and 1% penicillin–streptomycin (Sigma Aldrich)).
For studying a putative agonist effect, compounds were added to the assay plate using an Echo 550 acoustic liquid handler and incubated overnight at 37 °C 5% CO2 and 95% humidity. For studying the putative antagonist effect, compounds were added using an Echo 550 acoustic liquid handler and incubated for 15 min at 37 °C 5% CO2 and 95% humidity. Then, 1 nM 5α-dihydrotestosterone (DHT) was added, and the cell plate was incubated overnight at 37 °C, 5% CO2, and 95% humidity. After compound incubation, the cell medium was removed, 5 µl of lysis buffer 1X (Promega) was added, and the cell plate was incubated with agitation 15 min at room temperature. A freeze–thaw cycle of 10 min at −80 °C and room temperature was performed. Then 25 µl of luciferase assay reagent (Promega) was added and luminescence was determined on an EnSpire plate reader (Perkin Elmer). Data was fitted to a four-parameter sigmoidal model with Prism 5.1 (Graphpad, Inc).
The transcriptional activation of oestrogen receptor (ER) assay was carried out by adapting the OECD protocol 455 (OECD [2021]) and the method of Li et al. ([2013]).
ER luciferase reporter T47D cells (5000 cells/well) were seeded into 384 white plates (Greiner 781098) in culture medium (RPMI 1640 (Thermo Fisher Scientific 52400), 10% foetal bovine serum (Sigma Aldrich F9665), 1% penicillin–streptomycin (Sigma-Aldrich P0781), 75 µg/ml Geneticin (Gibco 10131)) and incubated overnight at 37 °C and 5% CO2. The following day, the cell culture medium was discarded and replaced by assay medium (RPMI 1640 (Thermo Fisher Scientific 52,400), 0.1% foetal bovine serum (Sigma Aldrich F9665), and 1% penicillin–streptomycin (Sigma Aldrich P0781).
The assay was performed as stated before for the AR assay using 17β-estradiol as agonist instead of DHT.
ED was assessed by transactivation in vitro assays to identify agonists and antagonists of the androgen and oestrogen receptors.
Also, the experimental group analysed the endocrine-disrupting activity for the CMR compounds.

[2] = test system: CHO-K1 (Chinese hamster ovary cells); conditions: 6 h with or without S9, 24 h without S9
Method: The in vitro micronucleus test is a genotoxicity test for the detection of micronuclei in the cytoplasm of interphase cells. Tests were conducted in the presence of the cytokinesis blocker cytochalasin B with three different treatment schedules: (i) short treatment for 6 h; (ii) short treatment for 6 h in the presence of an exogenous source of metabolic activation (cofactor supplemented S9 liver fraction); and (iii) extended treatment for 24 h.
CHO-K1 (Chinese hamster ovary cells, ATCC Item Number CCL-61) were cultured in DMEM F-12 containing 10% foetal bovine serum and 100 units/ml penicillin/100 μg/ml streptomycin (all from Sigma-Aldrich, St Louis, USA). Cells were seeded at 3000 cells/well in a collagen-coated 96-well plate in 100 μl. After 24 h, cells were incubated with CellTracker Orange CMTMR cellular dye solution (Invitrogen, Waltham, USA) for 1 h. Cells were then treated with compounds for 6 h, with or without S9 metabolic activation, or 24 h without S9 metabolic activation. […] After the 6-h compound treatment, cells were incubated with cytochalasin B (Alfa Aesar, Kandel, Germany) for 24 h. In case of 24-h treatment, cells were incubated with compounds in the presence of cytochalasin B and harvested after treatment. Benzo(a)pyrene, mitomycin C, and colchicine were used as positive controls for 6 h, with or without metabolic activation or 24 h treatments, respectively. […] After several washes with BupH-modified DPBS, cells were analysed in an Operetta High-Content Imaging System (PerkinElmer, Waltham, USA). […] Statistical significance was determined with the ANOVA test with significance level adjusted to p < 0.05.

Bhas 42 cell line = experiment: Bhas 42 cell transformation assay (carcinogenesis)
Method: This assay was carried out by adapting the in vitro Bhas 42 cell transformation assay method described in the OECD Guidance Document No. 231 ([2017]) based on the work of Sasaki et al. ([2014]).
It consists of two assays with a different test compound addition schedule to identify compounds with initiating activity (tumour initiators) or promoting activity (tumour promoters). Previously, a cell growth assay for 7 days is performed to set the assay doses of the CTA and another cell growth assay is concurrently performed to the CTA to verify that the selected doses meet the acceptance criteria for the tests.
The carcinogenesis potential of the compound was assayed by means of measuring the frequency of transformed foci (morphologically altered cells that form discrete anchorage-independent colonies) in the Bhas 42 cell line, which can be extrapolated to an assessment of carcinogenic potential. In the transformation assay, the incubation of compounds with two different treatment schedules allowed to identify the initiating or promoting carcinogenic potential of the compounds.

[3] = significant increase in foci frequency in at least two sequential concentrations

Molecule	Experimental result ([1]; endocrine disruptor yes/no)	Micronucleus assay (M) [2]	Carcinogen (C) (Bhas 42 cell line; [3])	Experimental result [1]	Carcinogen (C) (Bhas 42 cell line)
Reaction mass of cis-4-(isopropyl) cyclohexanemethanol and trans-4-(isopropyl) cyclohexanemethanol	No	Negative	Yes		
CCN(CC)c1ccc(N=Nc2c(Cl)cc([N+](=O)[O-])cc2[N+](=O)[O-])c(NC(C)=O)c1 [N-[2-[(2-chloro-4,6-dinitrophenyl)azo]-5-(diethylamino)phenyl]acetamide]	Yes	Negative	Yes		
O=C(OCCc1ccccc1)c1ccccc1 [Phenethyl benzoate]		Negative		No	No
CNC(=O)c1cc(Cl)ccn1.Cl [4-Chloro-N-methylpyridine-2-carboxamide hydrochloride (1:1)]		Negative		No	No
CCCCC(CC)CN (stereo not drawn) [2-Ethylhexylamine]		Negative		Yes	Yes
